Results from publication PMC12095047, “Transport of phenoxyacetic acid herbicides by PIN-FORMED auxin transporters” (Nature Plants, 2025).
Where “and” joins values, the source holds several entries; their conditions need not be identical. Identical values can stand only once. Like-named read-outs stand apart in the source and are kept apart here.

Key:
PIN8 = biological target: T1, PIN8 (Arabidopsis thaliana, UniProt Q9LFP6); experiment: SSM electrophysiology, KD by inhibition of the NPA binding current
T1 construct: made in house
T1 sequence (Q9LFP6 1-367): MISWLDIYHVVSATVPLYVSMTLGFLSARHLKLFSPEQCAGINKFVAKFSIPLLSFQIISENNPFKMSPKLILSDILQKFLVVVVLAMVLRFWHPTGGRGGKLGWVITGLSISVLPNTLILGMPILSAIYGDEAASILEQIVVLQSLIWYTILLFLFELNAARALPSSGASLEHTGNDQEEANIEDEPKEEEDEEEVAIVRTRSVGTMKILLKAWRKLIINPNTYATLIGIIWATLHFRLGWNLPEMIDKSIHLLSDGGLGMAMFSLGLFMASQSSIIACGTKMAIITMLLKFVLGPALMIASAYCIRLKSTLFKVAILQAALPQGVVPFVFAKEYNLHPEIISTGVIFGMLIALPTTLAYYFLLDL
Procedure: (§1) SSM, using a SURFE2R N1 from Nanion Technologies, was conducted as described. In brief, soy polar lipid mix (38% phosphatidyl choline, 30% phosphatidyl ethanolamine, 18% phosphatidyl inositol, 7% phosphatidic acid and 7% other soy lipids) and 1-palmitoyl-2-oleoyl-sn-glycero-3-phosphocholin were purchased from Avanti. Liposomes were prepared in Ringer solution without Ca^2+ (115 mM NaCl, 2.5 mM KCl, 1 mM NaHCO3, 10 mM HEPES pH7.4, 1 mM MgCl2) and homogenized using a Lipsofast (Avestin) with a […]. Triton X-100 was added to the liposomes to a final concentration of 1% (v/v). Protein was added to liposomes to a calculated lipid-to-protein ratio (LPR) of 10 unless stated otherwise. The detergent was removed using 400 mg ml^−1 Bio Beads (BioRad) overnight at 4 °C in a rotary shaker. Proteoliposomes were frozen in liquid nitrogen and kept at −80 °C until use. Proteoliposomes were diluted 1:5 in Ringer solution without Ca^2+, sonicated five times and then applied to the sensors by centrifugation (30 min, 3,000 g, 4 °C). Non-activating buffer was Ringer solution without Ca^2+ as described unless specified otherwise, and activating buffer contained the substrate of interest. In most instances we used a single-solution exchange experiment. In this case proteoliposomes, immobilized on the supported membrane, are kept in non-activating buffer as specified. At the beginning of the experiment the non-activating buffer is replaced with fresh identical non-activating buffer, and after 1 s, activating buffer (same buffer containing substrate) is added. After another second, the buffer is replaced with non-activating buffer again. Current response is recorded throughout the entire 3 s. For competition or inhibition, the respective compound was present in non-activating and activating solutions. Each experiment was performed on at least two individual sensors. On each sensor each measurement consists of three technical replicates where the mean is calculated. KD values were determined as described previously. Briefly, the binding current induced by 100 µM NPA was recorded in the presence of different concentrations of the substrate under investigation ranging between 0 µM and 1,000 µM present in the activating solution and the non-activating solution (Extended Data Fig. 5b). […] The maximum peak current was then plotted as a function of the concentration of the substrate under investigation and plotted against the degree of inhibition and fitted with a one-site binding model using GraphPad Prism V10.4.1 The half maximal concentration corresponds to the KD of the substrate under investigation.

[1] = biological target: T2, wild-type PIN8 proteoliposomes (Arabidopsis thaliana, UniProt Q9LFP6); experiment: SSM electrophysiology, peak width (FWHM) of current response at LPR10 and LPR50; format: biochemical; conditions: for Rel. FWHM (% of LPR10): replicates
T2 construct: made in house
T2 sequence (Q9LFP6 1-367): T1 sequence (Q9LFP6 1-367)
Procedure: as §1

PIN8 N223A = biological target: T3, PIN8 N223A (Arabidopsis thaliana, UniProt Q9LFP6, N223A); format: biochemical; conditions: PIN8 N223A, Michaelis–Menten fit
T3 construct: made in house
T3 sequence (Q9LFP6 whole entry N223A): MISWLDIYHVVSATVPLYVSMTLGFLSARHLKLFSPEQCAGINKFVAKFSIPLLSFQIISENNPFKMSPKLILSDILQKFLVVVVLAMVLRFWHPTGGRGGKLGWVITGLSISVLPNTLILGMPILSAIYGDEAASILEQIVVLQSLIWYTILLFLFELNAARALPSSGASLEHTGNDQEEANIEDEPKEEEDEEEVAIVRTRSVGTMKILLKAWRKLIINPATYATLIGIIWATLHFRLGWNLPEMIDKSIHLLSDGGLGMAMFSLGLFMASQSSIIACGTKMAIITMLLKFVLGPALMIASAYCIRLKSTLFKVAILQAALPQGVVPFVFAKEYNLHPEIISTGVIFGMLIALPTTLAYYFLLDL
Procedure: as §1
The protocol for expression and purification of AtPIN8 protein (Uniprot: Q9LFP6) in lauryl maltose neopentyl glycol was described previously. All point mutants were generated using Q5 Site-Directed mutagenesis kit (New England Biolabs). The C-flat Holey Carbon grids (CF-1.2/1.3, Cu-300 mesh) were glow-discharged for 45 s at 15 mA in a GloQube Plus (Quorum). […] After 1 h of incubation on ice, the sample was centrifuged at 16,000 g for 15 min before blotting to remove precipitation. A drop of 4 µl of each sample was applied to the glow-discharged grids, blotted with a Vitrobot Mark IV (ThermoFisher Scientific) using the following settings (temperature 4 °C, 100% humidity, blot time of 4 s, blot force −1) and vitrified in liquid ethane.

A. thaliana PIN8 = biological target: T4, A. thaliana PIN8 (Arabidopsis thaliana, UniProt Q9LFP6); experiment: SSM electrophysiology, peak current response on PIN8 proteoliposomes; format: biochemical; conditions: 100 μM 2,4-D, 20 µM NPA
T4 construct: made in house
T4 sequence (Q9LFP6 1-367): T1 sequence (Q9LFP6 1-367)
Procedure: as §1

[2] = Peak current, sheet F2A (Fig. 2a, KD of substrate binding), individual sensors
[3] = read-out: Rel. Inhibition of NPA peak currents, 50 µM substrate, 100 µM NPA, individual sensors
[4] = read-out: Rel. Inhibition of NPA peak currents, 100 µM substrate, 100 µM NPA, individual sensors
[5] = read-out: Rel. Inhibition of NPA peak currents, 250 µM substrate, 100 µM NPA, individual sensors
[6] = read-out: Rel. Inhibition of NPA peak currents, 500 µM substrate, 100 µM NPA, individual sensors
[7] = read-out: Rel. Inhibition of NPA peak currents, 1000 µM substrate, 100 µM NPA, individual sensors
[8] = sheet F2A (Fig. 2a, KD of substrate binding), individual sensors, read-out: Peak current
[9] = 20 µM substrate, 100 µM NPA, individual sensors, read-out: Rel. Inhibition of NPA peak currents
[10] = 50 µM substrate, 100 µM NPA, individual sensors, read-out: Rel. Inhibition of NPA peak currents
[11] = 100 µM substrate, 100 µM NPA, individual sensors, read-out: Rel. Inhibition of NPA peak currents
[12] = 250 µM substrate, 100 µM NPA, individual sensors, read-out: Rel. Inhibition of NPA peak currents
[13] = 500 µM substrate, 100 µM NPA, individual sensors, read-out: Rel. Inhibition of NPA peak currents
[14] = 1000 µM substrate, 100 µM NPA, individual sensors, read-out: Rel. Inhibition of NPA peak currents

Row | Compound | binding affinity to PIN8 in words (PIN8) | Kd (PIN8; [2]) | inhibition at 250 µM (PIN8; [5]) | inhibition at 500 µM (PIN8; [6]) | inhibition at 1000 µM (PIN8; [7]) | Kd (PIN8; [8]) | inhibition at 20 µM (PIN8; [9]) | inhibition at 50 µM (PIN8; [10]) | inhibition at 100 µM (PIN8; [11]) | inhibition at 250 µM (PIN8; [12]) | inhibition at 500 µM (PIN8; [13]) | inhibition at 1000 µM (PIN8; [14]) | Rel. FWHM (% of LPR10) ([1]; LPR10) | Rel. FWHM (% of LPR10) ([1]; LPR50) | also measured
1 | O=C(O)COc1cc(Cl)c(Cl)cc1Cl [2,4,5-T, 2,4,5-trichlorophenoxyacetic acid] | highest affinity | 9.28 µM | 91% | 95.3% | 98.4% | 8.98 µM |  |  |  |  |  |  |  |  | inhibition at 1 µM (PIN8; read-out: Rel. Inhibition of NPA peak currents, 1 µM substrate, 100 µM NPA, individual sensors): 11.8%; inhibition at 5 µM (PIN8; read-out: Rel. Inhibition of NPA peak currents, 5 µM substrate, 100 µM NPA, individual sensors): 35.9%; inhibition at 20 µM (PIN8; read-out: Rel. Inhibition of NPA peak currents, 20 µM substrate, 100 µM NPA, individual sensors): 65.7%; inhibition at 50 µM (PIN8; [3]): 78.2%; inhibition at 100 µM (PIN8; [4]): 87.3%
2 | Cc1ccc(OCC(=O)O)c(C)c1 [2,4-DMPA, 2-(2,4-dimethylphenoxy)acetic acid] |  |  |  |  |  | 205 µM and 139 µM and 178 µM | 9.25% | 21.8% | 37% | 61.3% | 78.8% | 92.8% |  |  | Kd (PIN8; inhibition of peak current elicited by 100 µM NPA, read-out: KD of substrate binding by PIN8): 174 ± 33 µM
3 | O=C(O)CCc1ccc(Cl)cc1Cl [2,4-DPP, 3-(2,4-dichlorophenyl)-propionic acid] | higher affinity than 2,4-D |  |  |  |  | 18.1 µM and 22.4 µM and 23.3 µM | 37.2% | 51.9% | 63.6% | 77.8% | 77.9% |  |  |  | inhibition at 5 µM (PIN8; 5 µM substrate, 100 µM NPA, individual sensors, read-out: Rel. Inhibition of NPA peak currents): 15.1%
4 | O=C(O)COc1ccc(Cl)cc1Cl [2,4D] |  |  |  |  |  |  |  |  |  |  |  |  | 1.043 % of LPR10 (2×) and 0.913 % of LPR10 | 1.565 % of LPR10 and 1.304 % of LPR10 and 1.239 % of LPR10 and 1.63 % of LPR10 | 
5 | O=C(O)COc1ccccc1Cl [2-CPA, 2-chlorophenoxyacetic acid] | high affinity, comparable to that of IAA and 2,4-D |  |  |  |  | 106 µM and 112 µM and 101 µM | 19.9% | 33.3% | 57% |  | 94.3% | 99.8% | 0.9412 % of LPR10 and 1.059 % of LPR10 and 1 % of LPR10 | 1.824 % of LPR10 (2×) and 1.235 % of LPR10 and 1.647 % of LPR10 | Imax (PIN8 N223A): 3 ± 0.1 nA and 2.6 ± 0.1 nA; EC50 (PIN8 N223A; No transport = model could not be fit, read-out: EC50 of peak current response): 263 µM
6 | Cc1ccccc1OCC(=O)O [2-MPA, 2-methylphenoxyacetic acid] |  |  |  |  |  | 284 µM and 209 µM and 256 µM |  | 13% | 27.5% | 53.9% | 74.7% | 82.9% |  |  | 
7 | Cc1ccc(OCC(=O)O)cc1 [4-MPA, 4-methylphenoxyacetic acid] |  |  |  |  |  | 710 µM and 614 µM and 521 µM |  |  | 12.1% | 25.7% | 40.8% | 58.3% |  |  | inhibition at 2000 µM (PIN8; 2000 µM substrate, 100 µM NPA, individual sensors, read-out: Rel. Inhibition of NPA peak currents): 72.8%
8 | Cc1cc(Cl)ccc1OCC(=O)O [MCPA, 2-methyl-4-chlorophenoxyacetic acid] | intermediate affinity | 149 µM and 159 µM and 103 µM | 65.4% | 78.3% | 88.6% |  |  |  |  |  |  |  |  |  | inhibition at 50 µM (PIN8; [3]): 25.1%; inhibition at 100 µM (PIN8; [4]): 41.7%
9 | O=C(O)c1ccccc1C(=O)Nc1cccc2ccccc12 [NPA, 1-N-naphthylphthalamic acid] |  |  |  |  |  |  |  |  |  |  |  |  | 0.9324 % of LPR10 and 1.054 % of LPR10 and 1.014 % of LPR10 | 0.6892 % of LPR10 and 0.7297 % of LPR10 and 0.7703 % of LPR10 | peak width of SSM-based current response as a function of lipid-to-protein ratio (LPR) ([1]; LPR10 versus LPR50): does not change with LPR; effect on the PIN8 current response to 2,4-D (A. thaliana PIN8): inhibited
10 | O=C(O)COc1ccccc1 [PA, phenoxyacetic acid] |  | 605 µM and 377 µM | 30.3% | 47.3% | 60.5% | 485 µM |  |  |  |  |  |  |  |  | 
